Assay results: patent US20250346606A1, “CAMPTOTHECIN COMPOUND, PREPARATION METHOD THEREFOR, AND APPLICATION THEREOF” (SICHUAN KELUN-BIOTECH BIOPHARMACEUTICAL CO., LTD., priority 2021, published 2025)
Where two headings read alike, the source gives them in different places.

Experiments:
Type in all cases: cell-based, Human
SKOV-3 cells = test: Inhibitory effect of compounds on SKOV-3 cell proliferation; conditions: read-out: IC50, inhibitory activity on SKOV-3 cell proliferation
NCI-H358 cells = test: Inhibitory effect of compounds on NCI-H358 cell proliferation
Outline: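 Adherent NCI-H358 cells were exposed to compound for 72 h, then viability was read by luminescence (Cell Counting-Lite 2.0). Inhibition calculated from RLU relative to cell-free background and vehicle wells; IC50 from a four-parameter fit.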

NCI-N87 cells = test: Inhibitory effect of compounds on NCI-N87 cell proliferation
Outline: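 Adherent NCI-N87 cells were exposed to compound dilutions for 72 h. Viability measured by Cell Counting-Lite 2.0 luminescence, with inhibition calculated against vehicle and cell-free background RLU. IC50 from four-parameter fit.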

HT29 cells = test: Inhibitory effect of compounds on HT29 cell proliferation; conditions: read-out: IC50, inhibitory activity on HT29 cell proliferation
Outline: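 Adherent HT29 cells incubated with diluted compounds for 72 h; viability read by luminescence (Cell Counting-Lite 2.0, 10 min). Inhibition calculated against cell-free background and vehicle-treated cells; IC50 from four-parameter curve fit.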

HCC1806 cells = test: Inhibitory effect of compounds on HCC1806 cell proliferation
Outline: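 HCC1806 cells, once adhered, were exposed to diluted compound for 72 h. Viability was read by Cell Counting-Lite 2.0 luminescence, inhibition calculated against vehicle and cell-free background RLU, and IC50 fitted with a four-parameter model.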

HCC70 cells = test: Inhibitory effect of compounds on HCC70 cell proliferation; conditions: read-out: IC50, inhibitory activity on HCC70 cell proliferation
Method: (1) Cell plating: First, tumor cells HCC70 were cultured in corresponding medium, then digested with trypsin, centrifuged, resuspended, and counted, and the cells were adjusted to an appropriate concentration for plating.
Co-incubation of the compound of the present disclosure and tumor cells: after the cells adhered to the wall, the medium was removed, and the diluted bioactive molecule (the compound of the present disclosure) was added to the wells of the above plate, and incubated for 72 h.
In vitro cell viability detection: After the incubation, 50 μL of Cell Counting-Lite™ 2.0 reagent (Vazyme/Novazyme) was added to each well, shaken and mixed well in the dark, reacted for 10 minutes, and then the detection was carried out with a microplate reader (manufacturer: BMG, Model: PHERAStar-FS) for reading. The background RLU was obtained by using cell-free medium (with Cell Counting-Lite™), and the vehicle RLU was obtained by using cell-containing medium (with Cell Counting-Lite™). Cell inhibition rate=1−(sample RLU−background RLU)/(solvent RLU−background RLU)×100%. According to the four-parameter model fitting curve, the half maximal inhibitory concentration (IC50) of the compound was calculated, and the detection results were shown in Table 16.

[1] = Homo sapiens, NCI-H358, 72 h, read-out: IC50, inhibitory activity on NCI-H358 cell proliferation, NCI-H358 human non-small cell lung cancer cells, 72 h incubation, Cell Counting-Lite 2.0
[2] = Homo sapiens, NCI-N87, 72 h, read-out: IC50, inhibitory activity on NCI-N87 cell proliferation, NCI-N87 human gastric cancer cells, 72 h incubation, Cell Counting-Lite 2.0
[3] = Homo sapiens, HCC1806, 72 h, read-out: IC50, inhibitory activity on HCC1806 cell proliferation, HCC1806 human breast squamous carcinoma cells, 72 h incubation, Cell Counting-Lite 2.0

Row | Compound | IC50 (SKOV-3 cells; SKOV-3 human ovarian cancer cells, 72 h incubation, Cell Counting-Lite 2.0) [nM] | IC50 (NCI-H358 cells; NCI-H358 human non-small cell lung cancer cells, 72 h incubation, Cell Counting-Lite 2.0, read-out: IC50, inhibitory activity on NCI-H358 cell proliferation) [nM] | IC50 (NCI-N87 cells; NCI-N87 human gastric cancer cells, 72 h incubation, Cell Counting-Lite 2.0, read-out: IC50, inhibitory activity on NCI-N87 cell proliferation) [nM] | IC50 (HT29 cells; HT29 human colon cancer cells, 72 h incubation, Cell Counting-Lite 2.0) [nM] | IC50 (HCC1806 cells; HCC1806 human breast squamous carcinoma cells, 72 h incubation, Cell Counting-Lite 2.0, read-out: IC50, inhibitory activity on HCC1806 cell proliferation) [nM] | IC50 (HCC70 cells; HCC70 human breast cancer cells, 72 h incubation, Cell Counting-Lite 2.0) [nM] | IC50 (SKOV-3 cells; Homo sapiens, SK-OV-3, 72 h) [nM] | IC50 (NCI-H358 cells; [1]) [nM] | IC50 (NCI-N87 cells; [2]) [nM] | IC50 (HT29 cells; Homo sapiens, HT-29, 72 h) [nM] | IC50 (HCC1806 cells; [3]) [nM] | IC50 (HCC70 cells; Homo sapiens, HCC70, 72 h) [nM]
1 | (2S)—N-((1S,9S)-5-chloro-9-ethyl-9-hydroxy-4-methyl-10,13-dioxo-2,3,9,10,13,15-hexahydro-1H,12H-benzo[de]pyrano[3′,4′:6,7]indolizino[1,2-b]quinolin-1-yl)-2-hydroxypropylamine [Example 4 (2-7-A)] | 8.64 | 35.4 | 3.76 | 1.56 | 1.25 | 151 | – | – | – | – | – | –
2 | CC[C@@]1(O)C(=O)OCc2c1cc1n(c2=O)Cc2c-1nc1cc(Cl)c(C)c3c1c2[C@@H](NC(=O)[C@@H](O)C1CC1)CC3 [Example 5 (2-12-A), (2S)—N-((1S,9S)-5-chloro-9-ethyl-9-hydroxy-4-methyl-10,13-dioxo-2,3,9,10,13,15-hexahydro-1H,12H-benzo[de]pyrano[3′,4′:6,7]indolizino[1,2-b]quinolin-1-yl)-2-cyclopropyl-2-hydroxyacetamide] | – | – | – | – | – | – | 6.85 | 17.6 | 4.91 | 3.01 | 1.4 | 171
3 | CC[C@@]1(O)C(=O)OCc2c1cc1n(c2=O)Cc2c-1nc1cc(Cl)c(C)c3c1c2[C@H](NC(=O)[C@@H](O)C1CC1)CC3 [Example 5 (2-12-B), (2S)—N-((1R,9S)-5-chloro-9-ethyl-9-hydroxy-4-methyl-10,13-dioxo-2,3,9,10,13,15-hexahydro-1H,12H-benzo[de]pyrano[3′,4′:6,7]indolizino[1,2-b]quinolin-1-yl)-2-cyclopropyl-2-hydroxyacetamide] | – | – | – | – | – | – | 4.99 | 15.8 | 4.97 | 2.34 | 1.07 | 176
4 | CC#C[C@@H](O)C(=O)N[C@H]1CCc2c(C)c(F)cc3nc4c(c1c23)Cn1c-4cc2c(c1=O)COC(=O)[C@]2(O)CC [Example 1 (1-1-A), (R)—N-((1S,9S)-9-ethyl-5-fluoro-9-hydroxy-4-methyl-10,13-dioxo-2,3,9,10,13,15-hexahydro-1H,12H-benzo[de]pyrano[3′,4′:6,7]indolizino[1,2-b]quinolin-1-yl)-2-hydroxypent-3-yneamide] | – | – | – | – | – | – | 7.81 | 65.2 | 4.58 | 1.28 | – | 225
